Measured values taken from US9492416B2, “Use of caftaric acid and lactic bacterium in food supplement for regulating skin pigmentation” (Nestec S.A., priority 2010, dated 2016).

Test system: B16 murine melanocyte cell line
Assay: Production of melanin by B16 murine melanocyte cell line
Type: cell-based
Conditions: B16 melanocytes, 72 hours; Kojic acid at 400 μg/mL
Method: In order to evaluate the potential beneficial effect of ingredients towards skin de- or pro-pigmentation we used 2D culture of murine melanocytes (B16) and we performed 2 tests: 1—assessment of melanin production and 2—assessment of tyrosinase production.
1. The Cell Culture Conditions. • B16 cells were cultured in DMEM 1 g/L glucose without phenol red supplemented with 10% foetal calf serum, in a humidified chamber at 37° C. and containing 5% CO2.
2. The Production of Melanin by B16 Murine Melanocyte Cell Line. • Cells were incubated with the selected ingredients or the test references (Kojic acid at 400 μg/mL) for 72 hours, in the presence or absence of NDP-MSH an analog of MSH. The total quantity of melanin (extracellular and intracellular) was evaluated by measurement of the optical density at 405 nm of each sample against melanin standards in presence or in absence of NDP-MSH.
Caftaric acid has been pre-treated with La-1 [(spray dried culture Lactobacillus Johnsonii CNCM I-1225, 1.19E10 cfu/g) for 24 hours in a thermomixer at 40° C., under shaking conditions. After incubation, samples have been centrifuged 5 minutes at 3000 g. After this treatment the probiotic as such is not present anymore in the sample however the presence of its metabolites can't be excluded.

O=c1cc(CO)occ1O [Kojic acid]
melanin production (in words): decrease in melanin production
